# Laboratory results from patent US8906911B2, “Chemokine receptor antagonists” (AbbVie Inc., priority 2012, dated 2014).
# Where two headings read alike, the source gives them in different places.
# Columns and labels:
# rat CCR2 = rat CCR2 (Rattus norvegicus (Rat), UniProt O55193); test: Inhibition of native agonist (rat MCP-1)-induced intracellular calcium release, calcium flux assay in CHO cells expressing rat CCR2 and Gα16; format: cell-based; conditions: read-out: rCCR2 Kb
# Source text: (§1) CHO cells expressing human CCR2B were generated as follows. cDNA for human CCR2B (cloned from human blood) was cloned into plasmid pcDNA3.1 (from Invitrogen). The resulting plasmids were separately transfected into CHO cells expressing human Gα16 (from Molecular Devices). […] CHO cells expressing rat CCR2 were generated as follows. cDNA for rat CCR2 (cloned from rat macrophage) was cloned into plasmid pEF-flag (from Chinese Academy of Science). The resulting plasmids were transfected into CHO cells expressing human Gα16 (from […]).
# (§2) Inhibition of Native Agonist-Induced Intracellular Calcium Release in Cells Expressing hCCR2B or rCCR2
# (§3) Calcium flux assays were performed in CHO cells expressing human CCR2B and Gα16 coupling protein, or rat CCR2 and Gα16 coupling protein. All compounds were dissolved in DMSO and assays run at a final DMSO concentration of 0.25% (v/v). Human MCP-1 was purchased from PeproTech and used at a final assay concentration of 2 nM, while rat MCP-1 was purchased from R&D and used at a final assay concentration of 4 nM. Assays with cells expressing human CCR2B were performed with human MCP-1, while assays with cells expressing rat CCR2 were performed with rat MCP-1.
# (§4) Briefly, cells were cultured overnight in a microtiter plate at 8000 per well. The next day, the resultant adherent cells were incubated in assay buffer (20 mM HEPES, pH 7.4, 0.1% bovine serum albumin, and 2.5 mM probenocid in Hank's Buffered Saline Solution) containing Calcium 4 dye (Molecular Probes) at 37° C. for 60 minutes. Calcium flux assays were performed on a FLIPR^Tetra instrument (Molecular Devices) by adding compound to the cells followed by addition of native agonist and measuring the change in fluorescence as a function of time. Maximal and minimal values for fluorescence were determined using native agonist (2 nM MCP-1) for human or rat CCR2, or buffer addition, respectively. Fluorescence values were used to calculate the percent inhibition at a given compound concentration and the data fit to a sigmoidal curve in a semi-log plot to determine IC50 values. The Kb value is calculated as Kb=IC50/(1+[agonist]/EC50), where [agonist] is the concentration of agonist used and EC50 is the agonist potency determined in the previous experiments. Mean Kb values and IC50 of the compounds assayed are reported in Table 2 and Table 3 respectively.
# human CCR2B = human CCR2B (Homo sapiens (Human), UniProt P41597); test: Inhibition of native agonist (human MCP-1)-induced intracellular calcium release, calcium flux assay in CHO cells expressing human CCR2B and Gα16; format: cell-based; conditions: for IC50: read-out: hCCR2B IC50
# Chain of human CCR2B (P41597 other isoform, or with tags, fused parts or gaps): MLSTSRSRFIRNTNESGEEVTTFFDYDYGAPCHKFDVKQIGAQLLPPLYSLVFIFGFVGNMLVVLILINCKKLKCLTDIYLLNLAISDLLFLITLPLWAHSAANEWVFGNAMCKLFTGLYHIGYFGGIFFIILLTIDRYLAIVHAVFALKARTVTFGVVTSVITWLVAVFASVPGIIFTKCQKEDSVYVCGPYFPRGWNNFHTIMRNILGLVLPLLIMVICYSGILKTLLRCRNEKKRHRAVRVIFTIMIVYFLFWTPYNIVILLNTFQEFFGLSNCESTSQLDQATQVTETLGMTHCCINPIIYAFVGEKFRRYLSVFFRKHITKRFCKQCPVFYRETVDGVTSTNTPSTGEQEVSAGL
# Source text: as §1, §2, §3, §4
# Chain of rat CCR2 (O55193 whole entry): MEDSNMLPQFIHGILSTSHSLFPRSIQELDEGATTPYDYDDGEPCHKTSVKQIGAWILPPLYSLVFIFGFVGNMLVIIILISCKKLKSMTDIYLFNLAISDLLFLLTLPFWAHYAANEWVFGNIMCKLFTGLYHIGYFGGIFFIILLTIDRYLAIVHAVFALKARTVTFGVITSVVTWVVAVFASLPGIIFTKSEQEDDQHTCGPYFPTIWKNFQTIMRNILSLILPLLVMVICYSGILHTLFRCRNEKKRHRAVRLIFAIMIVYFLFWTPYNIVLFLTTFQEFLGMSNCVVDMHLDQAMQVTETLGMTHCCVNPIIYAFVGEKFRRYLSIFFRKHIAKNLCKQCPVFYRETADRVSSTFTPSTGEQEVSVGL
SMILES,Kb (rat CCR2),"IC50 (human CCR2B; calcium flux, human MCP-1 2 nM)",Kb (human CCR2B; read-out: hCCR2B Kb),Kb (human CCR2B),IC50 (human CCR2B)
"CO[C@@H]1COCC[C@@H]1N[C@@H]1C[C@H]2CCC[C@@]2(C(=O)N2C[C@@H]3C[C@H]2CN3c2ccnc(Cl)c2)C1 [Example 35, 1,5-anhydro-3-{[(2R,3aR,6aR)-3a-{[(1S,4S)-5-(2-chloropyridin-4-yl)-2,5-diazabicyclo[2.2.1]hept-2-yl]carbonyl}octahydropentalen-2-yl]amino}-2,3-dideoxy-4-O-methyl-D-erythro-pentitol]",0.24 µM,2.78 µM,0.682 µM,–,–
"CO[C@@H]1COCC[C@@H]1N[C@@H]1C[C@H]2CCC[C@@]2(C(=O)N2C[C@@H]3C[C@H]2CN3c2ccc(C#N)cc2C(F)(F)F)C1 [Example 37, 1,5-anhydro-3-{[(2R,3aR,6aR)-3a-({(1S,4S)-5-[4-cyano-2-(trifluoromethyl)phenyl]-2,5-diazabicyclo[2.2.1]hept-2-yl}carbonyl)octahydropentalen-2-yl]amino}-2,3-dideoxy-4-O-methyl-D-erythro-pentitol]",0.248 µM,1.6 µM,0.393 µM,–,–
"CO[C@@H]1COCC[C@H]1N[C@@H]1C[C@H]2CCC[C@@]2(C(=O)N2[C@@H]3CC[C@H]2CN(c2cc(C(F)(F)F)ccn2)C3)C1 [Example 41, 1,5-anhydro-2,3-dideoxy-4-O-methyl-3-{[(2R,3aR,6aR)-3a-({(1R,5S)-3-[4-(trifluoromethyl)pyridin-2-yl]-3,8-diazabicyclo[3.2.1]oct-8-yl}carbonyl)octahydropentalen-2-yl]amino}-D-threo-pentitol]",> 4 µM,25 µM,> 6.14 µM,–,–
"CO[C@@H]1COCC[C@@H]1N[C@@H]1C[C@H]2CCC[C@@]2(C(=O)N2C[C@@H]3C[C@H]2CN3c2cc(C#N)cc(C(F)(F)F)c2)C1 [Example 42, 1,5-anhydro-3-{[(2R,3aR,6aR)-3a-({(1S,4S)-5-[3-cyano-5-(trifluoromethyl)phenyl]-2,5-diazabicyclo[2.2.1]hept-2-yl}carbonyl)octahydropentalen-2-yl]amino}-2,3-dideoxy-4-O-methyl-D-erythro-pentitol]",0.026 µM,–,–,0.199 µM,0.812 µM
"CO[C@@H]1COCC[C@@H]1N[C@@H]1C[C@H]2CCC[C@@]2(C(=O)N2C[C@@H]3C[C@H]2CN3c2cc(C(F)(F)F)cc(C(F)(F)F)c2)C1 [Example 43, 1,5-anhydro-3-{[(2R,3aR,6aR)-3a-({(1S,4S)-5-[3,5-bis(trifluoromethyl)phenyl]-2,5-diazabicyclo[2.2.1]hept-2-yl}carbonyl)octahydropentalen-2-yl]amino}-2,3-dideoxy-4-O-methyl-D-erythro-pentitol]",0.053 µM,–,0.373 µM,–,–
"CO[C@@H]1COCC[C@@H]1N[C@@H]1C[C@H]2CCC[C@@]2(C(=O)N2C[C@@H]3C[C@H]2CN3c2cccc(Cl)c2C#N)C1 [Example 44, 1,5-anhydro-3-{[(2R,3aR,6aR)-3a-{[(1S,4S)-5-(3-chloro-2-cyanophenyl)-2,5-diazabicyclo[2.2.1]hept-2-yl]carbonyl}octahydropentalen-2-yl]amino}-2,3-dideoxy-4-O-methyl-D-erythro-pentitol]",0.486 µM,1.6 µM,0.394 µM,–,–
"CO[C@@H]1COCC[C@@H]1N[C@@H]1C[C@H]2CCC[C@@]2(C(=O)N2C[C@@H]3C[C@H]2CN3c2cccc(C(F)(F)F)c2C#N)C1 [Example 45, 1,5-anhydro-3-{[(2R,3aR,6aR)-3a-({(1S,4S)-5-[2-cyano-3-(trifluoromethyl)phenyl]-2,5-diazabicyclo[2.2.1]hept-2-yl}carbonyl)octahydropentalen-2-yl]amino}-2,3-dideoxy-4-O-methyl-D-erythro-pentitol]",0.532 µM,2.2 µM,0.542 µM,–,–
"CO[C@@H]1COCC[C@@H]1N[C@@H]1C[C@H]2CCC[C@@]2(C(=O)N2C[C@@H]3C[C@H]2CN3c2ccc(Cl)c(C(F)(F)F)c2)C1 [Example 46, 1,5-anhydro-3-{[(2R,3aR,6aR)-3a-({(1S,4S)-5-[4-chloro-3-(trifluoromethyl)phenyl]-2,5-diazabicyclo[2.2.1]hept-2-yl}carbonyl)octahydropentalen-2-yl]amino}-2,3-dideoxy-4-O-methyl-D-erythro-pentitol]",0.003 µM,–,0.004 µM,–,–
"CO[C@@H]1COCC[C@@H]1N(C)[C@@H]1C[C@H]2CCC[C@@]2(C(=O)N2C[C@@H]3C[C@H]2CN3c2cccc(C(F)(F)F)c2C#N)C1 [Example 54, 1,5-anhydro-3-{[(2R,3aR,6aR)-3a-({(1S,4S)-5-[2-cyano-3-(trifluoromethyl)phenyl]-2,5-diazabicyclo[2.2.1]hept-2-yl}carbonyl)octahydropentalen-2-yl](methyl)amino}-2,3-dideoxy-4-O-methyl-D-erythro-pentitol]",2.31 µM,–,0.682 µM,–,2.78 µM
"CO[C@@H]1COCC[C@@H]1N(C)[C@@H]1C[C@H]2CCC[C@@]2(C(=O)N2C[C@@H]3C[C@H]2CN3c2cc(C(F)(F)F)cc(C(F)(F)F)c2)C1 [Example 55, 1,5-anhydro-3-{[(2R,3aR,6aR)-3a-({(1S,4S)-5-[3,5-bis(trifluoromethyl)phenyl]-2,5-diazabicyclo[2.2.1]hept-2-yl}carbonyl)octahydropentalen-2-yl](methyl)amino}-2,3-dideoxy-4-O-methyl-D-erythro-pentitol]",0.175 µM,1.41 µM,0.346 µM,–,–
"CO[C@@H]1COCC[C@@H]1N(C)[C@@H]1C[C@H]2CCC[C@@]2(C(=O)N2C[C@@H]3C[C@H]2CN3c2cc(C#N)cc(C(F)(F)F)c2)C1 [Example 57, 1,5-anhydro-3-{[(2R,3aR,6aR)-3a-({(1S,4S)-5-[3-cyano-5-(trifluoromethyl)phenyl]-2,5-diazabicyclo[2.2.1]hept-2-yl}carbonyl)octahydropentalen-2-yl](methyl)amino}-2,3-dideoxy-4-O-methyl-D-erythro-pentitol]",0.055 µM,0.521 µM,0.128 µM,–,–
"CO[C@@H]1COCC[C@@H]1N(C)[C@@H]1C[C@H]2CCC[C@@]2(C(=O)N2C[C@@H]3C[C@H]2CN3c2cccc(Cl)c2C#N)C1 [Example 58, 1,5-anhydro-3-{[(2R,3aR,6aR)-3a-{[(1S,4S)-5-(3-chloro-2-cyanophenyl)-2,5-diazabicyclo[2.2.1]hept-2-yl]carbonyl}octahydropentalen-2-yl](methyl)amino}-2,3-dideoxy-4-O-methyl-D-erythro-pentitol]",0.515 µM,2.78 µM,0.684 µM,–,–
"O=C(N1C[C@@H]2C[C@H]1CN2c1cc(C(F)(F)F)ccn1)[C@@]12CCC[C@@H]1C[C@@H](N1CCOCC1)C2 [Example 59, [(2R,3aR,6aR)-2-(morpholin-4-yl)hexahydropentalen-3a(1H)-yl]{(1S,4S)-5-[4-(trifluoromethyl)pyridin-2-yl]-2,5-diazabicyclo[2.2.1]hept-2-yl}methanone]",0.533 µM,–,0.204 µM,–,0.83 µM
"C[C@H]1COCC[C@H]1N[C@@H]1C[C@H]2CCC[C@@]2(C(=O)N2C[C@@H]3C[C@H]2CN3c2cc(C(F)(F)F)ccn2)C1 [Example 62, [(2R,3aR,6aR)-2-{[(3R,4R)-3-methyltetrahydro-2H-pyran-4-yl]amino}hexahydropentalen-3a(1H)-yl]{(1S,4S)-5-[4-(trifluoromethyl)pyridin-2-yl]-2,5-diazabicyclo[2.2.1]hept-2-yl}methanone]",0.055 µM,0.445 µM,0.109 µM,–,–
